Measured values published in patent publication US20260240844A1, “INHIBITORS OF CHD1L AND USES THEREOF” (The Regents of the University of Colorado, a body corporate, priority 2023, published 2026).
Entries after “also recorded” stand apart in the source; their conditions may differ. Where two headings read alike, the source gives them in different places. Blank lines part the entries; values can stand above or below the molecule they belong to.

Legend:
[1] = system: MDA-MB-231 tumor organoids; test: Tumor organoid cytotoxicity, MDA-MB-231; assay type: cell-based; conditions: for IC50: Homo sapiens
Description: Tumor organoid culture—Cell lines were cultured as tumor organoids by seeding 2,000 to 5,000 cells/well into uncoated 96 well U-bottom Ultra Low Attachment Microplates (Corning) using their corresponding medium. Cell aggregation was then promoted by centrifugation of the plates for 15 min at 1,000 rpm followed by the addition of Matrigel (Corning) to a 2-5% final concentration. Tumor organoids were maintained under standard cell culture conditions for 72 h prior to drug treatment.
Organoids were then transferred to a white solid bottom 96 well plate and incubated with an equal volume of CellTiter Glo 3D reagent (Promega) for 45 min on a shaker at 400 rpm. Luminescence was recorded using the EnVision plate reader (PerkinElmer) and values normalized to the controls using GraphPad Prism.

SUM149PT cells = test: Cell cycle analysis by flow cytometry; assay type: cell-based
Description: Cells were then harvested by trypsinization, washed with PBS and fixed with 70% ice-cold ethanol for at least 2 h. The fixed cells were centrifuged at 300 g for 10 min, resuspended in PBS, centrifuged again, and stained in a 0.5 μg/mL DAPI solution in 0.1% Triton X-100-PBS for 30 min at RT. Samples were measured on a NovoCyte Penteon Cytometer (Agilent) and cell cycle distribution of single cells was analyzed using the automatic settings of FlowJo V10 (BD Biosciences).
Upon generation of DNA lesions, DNA damage checkpoints are also activated, which can lead to an arrest of the cell cycle, restraining chromosome segregation until the damaged DNA has been repaired. To study the effect of TNBC therapies and inhibition of CHD1L on the cell cycle, cells were stained with DAPI, and the cell subpopulations in G1, S and G2/M phases were analyzed by flow cytometry. […] Remarkably, the combination of these drugs with CHD1Li enhanced their effects, potentiating G2/M arrest caused by olaparib and G1 arrest caused by 5-FU (FIG. 23).

PAR in SUM149PT cells = test: PAR immunofluorescence (nuclear / cytoplasmic PAR); assay type: cell-based; conditions: for nuclear PAR (PARylation) / cytoplasmic PAR: SUM149PT cells, single agent; for nuclear PAR (PARylation): 4 h
Excerpt: Inhibition of CHD1L promotes PAR translocation to the cytoplasm. The main role of PARP1 during the DDR is to detect and signal the recruitment of repair machinery to the sites of DNA damage. For that, PARP1/2 catalyze PARylation, which is a pivotal […] protein modification, consisting of the addition of ADP-ribose units to the carboxyl group of acidic residues such as glutamate or aspartate on target proteins by using NAD^+ as substrate. CHD1L is one of the proteins that requires binding to these PAR chains for its activation and subsequent chromatin remodeling. Using immunofluorescence of PAR, the effect of PARPi and CHD1Li on PARylation in SUM149PT cells was investigated. […] In addition, the effect of doxorubicin on nuclear PARylation was reverted by CHD1L inhibition, causing an increase of PAR in the cytoplasm (FIG. 25A-C).

cat-CHD1L = target: T1, cat-CHD1L (Homo sapiens, UniProt Q86WJ1); test: CHD1L ATPase assay measured by ADP-Glo; assay type: biochemical
T1 construct: made in house; host or cells: Rosetta 2 (DE3) pLysS cells (E. coli)
T1 sequence (Q86WJ1 16-619): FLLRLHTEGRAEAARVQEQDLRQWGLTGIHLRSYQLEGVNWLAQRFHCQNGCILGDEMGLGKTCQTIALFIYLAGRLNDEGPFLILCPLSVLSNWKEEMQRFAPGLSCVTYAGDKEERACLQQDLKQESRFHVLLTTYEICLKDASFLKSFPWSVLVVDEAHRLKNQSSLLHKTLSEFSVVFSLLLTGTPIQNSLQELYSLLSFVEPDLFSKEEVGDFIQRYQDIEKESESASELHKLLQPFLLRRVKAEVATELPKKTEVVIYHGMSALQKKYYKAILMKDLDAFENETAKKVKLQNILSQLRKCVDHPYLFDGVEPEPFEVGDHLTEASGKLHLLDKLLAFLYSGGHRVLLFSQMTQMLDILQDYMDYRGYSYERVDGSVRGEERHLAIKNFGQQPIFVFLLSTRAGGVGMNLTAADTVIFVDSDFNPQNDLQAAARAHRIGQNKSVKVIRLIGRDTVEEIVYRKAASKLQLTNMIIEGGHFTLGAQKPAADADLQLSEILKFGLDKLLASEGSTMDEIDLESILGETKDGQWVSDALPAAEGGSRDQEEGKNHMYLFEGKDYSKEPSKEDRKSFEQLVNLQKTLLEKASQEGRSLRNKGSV

CHD1L = target: T2, CHD1L (Homo sapiens, UniProt Q86WJ1); test: CHD1L trapping (in situ subcellular fractionation, immunofluorescence); assay type: cell-based; conditions: for CHD1L trapping onto chromatin/nucleosomes: single agent, SUM149PT + 0.01% MMS 4 h, BC and CRC cells
T2 sequence (Q86WJ1 1-897): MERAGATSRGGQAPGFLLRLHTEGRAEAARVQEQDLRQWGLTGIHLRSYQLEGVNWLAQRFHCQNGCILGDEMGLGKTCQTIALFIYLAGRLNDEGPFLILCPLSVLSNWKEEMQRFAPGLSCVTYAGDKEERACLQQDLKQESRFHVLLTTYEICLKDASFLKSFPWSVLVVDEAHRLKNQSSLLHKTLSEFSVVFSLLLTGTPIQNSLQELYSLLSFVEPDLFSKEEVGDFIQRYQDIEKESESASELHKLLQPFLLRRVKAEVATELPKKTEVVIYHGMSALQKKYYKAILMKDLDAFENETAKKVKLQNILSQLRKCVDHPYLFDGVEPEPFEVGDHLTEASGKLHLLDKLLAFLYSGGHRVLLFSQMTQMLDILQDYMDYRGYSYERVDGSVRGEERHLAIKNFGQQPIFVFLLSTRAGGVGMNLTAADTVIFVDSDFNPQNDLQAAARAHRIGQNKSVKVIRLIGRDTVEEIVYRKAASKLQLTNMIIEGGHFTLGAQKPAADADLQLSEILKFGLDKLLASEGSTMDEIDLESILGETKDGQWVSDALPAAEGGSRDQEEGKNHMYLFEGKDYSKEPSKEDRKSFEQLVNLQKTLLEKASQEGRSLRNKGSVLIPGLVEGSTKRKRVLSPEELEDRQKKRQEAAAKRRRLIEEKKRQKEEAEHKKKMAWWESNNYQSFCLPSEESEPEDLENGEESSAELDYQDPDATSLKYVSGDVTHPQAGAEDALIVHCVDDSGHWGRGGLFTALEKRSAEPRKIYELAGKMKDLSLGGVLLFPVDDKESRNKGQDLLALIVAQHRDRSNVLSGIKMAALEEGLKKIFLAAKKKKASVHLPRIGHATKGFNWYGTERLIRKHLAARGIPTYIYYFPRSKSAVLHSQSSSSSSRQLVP
Excerpt: Other studies on the role of CHD1L used cell lines with knockdown or knockouts of the gene encoding for CHD1L and have never been able to study the result of its enzymatic inhibition.

[2] = MDA-MB-231, MDA-MB-231 (BRCA wildtype HR-proficient), read-out: IC50, tumor organoid viability, single agent

Compound: O=c1[nH]cc(F)c(=O)[nH]1 [Compound 5-FU, 5-fluorouracil]
IC50 5-FU (μM) in MDA-MB-231 ([1]; Compound 13 0 μM): Resistant | IC50 ([1]; MDA-MB-231, Compound 13 2 μM, read-out: IC50 5-FU (μM) in MDA-MB-231): 23.5 µM | IC50 ([1]; MDA-MB-231, Compound 13 2.25 μM, read-out: IC50 5-FU (μM) in MDA-MB-231): 9.1 µM | IC50 ([1]; MDA-MB-231, Compound 13 2.5 μM, read-out: IC50 5-FU (μM) in MDA-MB-231): 4.6 µM | increase in number of cells in G1 phase compared to untreated cells (SUM149PT cells; 24 h): 16%

inhibition of CHD1L ATPase activity (cat-CHD1L): potently inhibited | CHD1L trapping in combination (CHD1L; Compound 6 combined with olaparib): complete decrease in the CHD1L trapping
Compound: Cc1cc(Nc2ccc(NC(=O)Cc3cccs3)cc2)nc(N2CCCC2)n1 [Compound 6, N-(4-((6-methyl-2-(pyrrolidin-1-yl)pyrimidin-4-yl)amino)phenyl)-2-(thiophen-2-yl)acetamide]
nuclear PAR (PARylation) (PAR in SUM149PT cells): caused the same effects as PARPi | IC50 [1, 2]: 3.3 µM | CHD1L trapping onto chromatin/nucleosomes (CHD1L): dose-dependent increase in CHD1L trapping | cell cycle effect (SUM149PT cells; 24 hours, 0.2 μM): arrest in S and G2/M phases

Compound: Cc1cc(Nc2ccc(NC(=O)Cc3cc(Br)cs3)cc2)nc(N2CCCC2)n1 [Compound 6.11, 2-(4-bromothiophen-2-yl)-N-(4-((6-methyl-2-(pyrrolidin-1-yl)pyrimidin-4-yl)amino)phenyl)acetamide]
PAR localization (PAR in SUM149PT cells; Compound 6.11 combined with doxorubicin): shifted PAR to the cytoplasm | cytoplasmic PAR (PAR in SUM149PT cells): increased cytoplasmic PAR | IC50 [1, 2]: ~3.3 µM

Compound: COc1cccc2c1C(=O)c1c(O)c3c(c(O)c1C2=O)C[C@@](O)(C(=O)CO)C[C@@H]3O[C@H]1C[C@H](N)[C@H](O)[C@H](C)O1 [doxorubicin]
cytoplasmic PAR (PAR in SUM149PT cells): no effect on cytoplasmic PAR | nuclear PAR (PARylation) (PAR in SUM149PT cells): increased PARylation in the nucleus | nuclear PAR (PARylation) (PAR in SUM149PT cells; listed as Doxorubicin): increased nuclear PAR | cytoplasmic PAR (PAR in SUM149PT cells; listed as Doxorubicin): did not elevate cytoplasmic PAR | IC50 ([1]; MDA-MB-231, Compound 13 0 μM, read-out: IC50 doxorubicin (nM) in MDA-MB-231): 0.346 µM | IC50 ([1]; MDA-MB-231, Compound 13 2 μM, read-out: IC50 doxorubicin (nM) in MDA-MB-231): 0.0922 µM | IC50 ([1]; MDA-MB-231, Compound 13 2.25 μM, read-out: IC50 doxorubicin (nM) in MDA-MB-231): 0.0815 µM | IC50 ([1]; MDA-MB-231, Compound 13 2.5 μM, read-out: IC50 doxorubicin (nM) in MDA-MB-231): 0.0202 µM | inhibition of CHD1L ATPase activity (cat-CHD1L): do not trap CHD1L or inhibit CHD1L ATPase activity | CHD1L trapping onto chromatin/nucleosomes (CHD1L): do not trap CHD1L | CHD1L trapping onto chromatin/nucleosomes (CHD1L; listed as Doxorubicin): does not cause a stable interaction of CHD1L and chromatin

Compound: O=C(c1cc(Cc2n[nH]c(=O)c3ccccc23)ccc1F)N1CCN(C(=O)C2CC2)CC1 [olaparib]
cytoplasmic PAR (PAR in SUM149PT cells): increased cytoplasmic PAR; also recorded: increase in cytoplasmic PAR | nuclear PAR (PARylation) (PAR in SUM149PT cells): inhibition of nuclear PARylation | IC50 ([1]; MDA-MB-231, Compound 13 0 μM, read-out: IC50 Olaparib (μM) in MDA-MB-231): 102 µM | IC50 ([1]; MDA-MB-231, Compound 13 2 μM, read-out: IC50 Olaparib (μM) in MDA-MB-231): 18.7 µM | IC50 ([1]; MDA-MB-231, Compound 13 2.25 μM, read-out: IC50 Olaparib (μM) in MDA-MB-231): 12.1 µM | IC50 ([1]; MDA-MB-231, Compound 13 2.5 μM, read-out: IC50 Olaparib (μM) in MDA-MB-231): 3.1 µM | inhibition of CHD1L ATPase activity (cat-CHD1L): do not trap CHD1L or inhibit CHD1L ATPase activity | CHD1L trapping onto chromatin/nucleosomes (CHD1L): do not trap CHD1L; also recorded: did not show CHD1L trapping | increase in the percentage of cells in the G2/M phase (SUM149PT cells; 24 h): 2 fold
